In the assay the test system is 889142-216-R-J1-PDC complex spheroid viability. In words: Anticancer human tumor 889142-216-R-J1-PDC patient-derived bladder carcinoma cell line growth inhibition [POLQ]. As to conditions: for viability, T/C: stronger effect = lower value. The procedure: Multicellular complex tumor spheroid response to Polymerase (POL) inhibitors (novobiocin, ART-558, RP6685) in combination with a variety of drugs and investigational agents in selected tumor cell lines
The POL inhibitors (novobiocin, ART-558, and RP6685) were evaluated both individually and in combination with standard of care and investigational anticancer small molecules within a complex spheroid model of solid tumors. . Complex spheroids include a stromal component modeled by human endothelial cells (HUVEC) and fibroblasts modeled by human mesenchymal stem cells (MSCs). The concentration ranges selected for each drug and investigational agent were based upon clinically achievable concentrations if the clinical Cmax of the agent was known.
Compounds. The drugs and investigational agents: novobiocin (NSC847541), ART-558 (NSC835418), RP-6685 (NSC848927), peposertib (NSC802822), ceralasertib (NSC780249), elimusertib (NSC800525), camonsertib (NSC841442), AZD-1390 (NSC803789), olaparib (NSC753686), talazoparib (NSC767125), rucaparib (NSC756644), sotorasib (NSC818433), MRTX-1133 (NSC836407), SN-38 (NSC673596), topotecan (NSC609699), epotoside (NSC141540), doxorubicin (NSC123127), gemcitabine (NSC613327), 5-fluorouracil (NSC19893), paclitaxel (NSC125973), vemurafenib (NSC761431), MSA-2 (NSC828583), SN-011 (NSC837082), adavosertib (NSC754352), prexasertib (NSC758257), carboplatin (NSC241240) and oxaliplatin (NSC266046), were obtained from the National Cancer Institute (NCI) Developmental Therapeutics Program Chemical Repository (21). The FDA-approved anticancer drug set is available from the Developmental Therapeutics Program at https://dtp.cancer.gov/organization/dscb/obtaining/. […] The stock solutions were prepared in dimethyl sulfoxide (DMSO, Sigma-Aldrich, St. Louis, MO, cat. D2650), except for the platinum compounds which were prepared in saline (Quality Biological, Gaithersburg, MD, cat. 114-055-101), at 800-fold the tested concentration and stored at -70 degrees C prior to their use. All drugs and investigational agents were tested over a range starting from a high concentration at or near the clinical Cmax and decreasing in half-log increments. If the clinical Cmax for an agent had not been determined, the highest concentration tested was 10 microM, except for SN-38, which was tested at a high concentration of 1 microM.
Cell Culture. All cells were maintained in an incubator at 37 degrees C and 5% CO2 with 95% humidity. The PDC lines were cultured according to standard operating procedures established by the NCI PDMR (https://pdmr.cancer.gov). Table 3 of the manuscript, lists the cell lines along with the number of the three cell types plated to form the mct-spheroids and media for tumor cell growth. After thawing, all PDC lines, except 997537-175-T-J1-PDC and 415267-285-R-J2-PDC, were cultured in Matrigel-coated flasks prepared with a working solution of 1X Ham's F-12 nutrient mix, without supplementation (Thermo Fisher Scientific, cat. 11765054), 100 U/mL penicillin-streptomycin (Thermo Fisher Scientific, cat. 15140122), and 2.5% Matrigel (Corning Inc., Corning, NY, cat. 354248) for the first three passages. The two PDC lines 997537-175-T-J1-PDC and 415267-285-R-J2-PDC were cultured on uncoated flasks. The 857933-349-R-J2-PDC line was cultured in 6C/Colon 1B media containing advanced DMEM/F-12 (Thermo Fisher Scientific, cat. 12634028), 10 mM HEPES (Thermo Fisher Scientific, cat. 15630080), 1X GlutaMAX supplement (Thermo Fisher Scientific, cat. 35050061), 0.1 mg/mL primocin (InvivoGen, San Diego, CA, cat. ant-pm-2), 10% defined fetal bovine serum, heat inactivated (HyClone Laboratories Inc., Logan, UT, cat. SH30070.03HI), 50% L-WRN conditioned media (ATCC, cat. CRL-3276), 1.25 mM N-Acetyl-L-cysteine (Sigma-Aldrich, cat. A9165), 10 mM nicotinamide (Sigma-Aldrich, cat. N0636), 1X B-27 supplement (Thermo Fisher Scientific, cat. 17504044), 1X N-2 supplement (Thermo Fisher Scientific, cat. […]

Structures are written as SMILES. Several values for one entry are separate records, joined by “and”; a condition that tells them apart may be missing. Equal values may be shown once.
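Also: spheroids exposed to compounds for seven days.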
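For viability, T/C in this document: 100% = DMSO vehicle control viability.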

As to `C=CC(=O)N1CCN(c2nc(=O)n(-c3c(C)ccnc3C(C)C)c3nc(-c4c(O)cccc4F)c(F)cc23)C(C)C1` (stereo not drawn) + COC1C(OC(N)=O)C(O)C(Oc2ccc3c(O)c(NC(=O)c4ccc(O)c(CC=C(C)C)c4)c(=O)oc3c2C)OC1(C)C, the IC50 (curve of first compound, second compound 0.0316 µM) is greater than 10000 nM; the half-inhibitory concentration (IC50) (curve of first compound, second compound 0.1 µM) was greater than 10000 nM; the half-inhibitory concentration (IC50) (curve of first compound, second compound 0.316 µM) was greater than 10000 nM; the half-maximal inhibitory concentration (IC50) (curve of first compound, second compound 1 µM) was greater than 10000 nM; the IC50 (curve of first compound, second compound 3.16 µM) is greater than 10000 nM; the IC50 (curve of first compound, second compound 10 µM) is greater than 10000 nM. Besides, the viability, T/C runs as follows: (second compound 0.0316 µM, first compound 0.0316 µM) 111%; (second compound 0.0316 µM, first compound 0.1 µM) 114%; (second compound 0.0316 µM, first compound 0.316 µM) 121%; (second compound 0.0316 µM, first compound 1 µM) 111%; (second compound 0.0316 µM, first compound 3.16 µM) 131%; (second compound 0.0316 µM, first compound 10 µM) 88.7%. Besides, the viability, T/C runs as follows: (second compound 0.1 µM, first compound 0.0316 µM) 113%; (second compound 0.1 µM, first compound 0.1 µM) 116%; (second compound 0.1 µM, first compound 0.316 µM) 116%; (second compound 0.1 µM, first compound 1 µM) 146%; (second compound 0.1 µM, first compound 3.16 µM) 127%; (second compound 0.1 µM, first compound 10 µM) 82.4%. Moreover, the viability, T/C is 111% (second compound 0.316 µM, first compound 0.0316 µM); 133% (second compound 0.316 µM, first compound 0.1 µM); 103% (second compound 0.316 µM, first compound 0.316 µM); 125% (second compound 0.316 µM, first compound 1 µM); 135% (second compound 0.316 µM, first compound 3.16 µM); 78% (second compound 0.316 µM, first compound 10 µM). Besides, the viability, T/C reads like this: (second compound 1 µM, first compound 0.0316 µM) 97.3%; (second compound 1 µM, first compound 0.1 µM) 123%; (second compound 1 µM, first compound 0.316 µM) 126%; (second compound 1 µM, first compound 1 µM) 109%; (second compound 1 µM, first compound 3.16 µM) 112%; (second compound 1 µM, first compound 10 µM) 103%. Besides, the viability, T/C (second compound 3.16 µM, first compound 0.0316 µM) was 98.3%; the viability, T/C (second compound 3.16 µM, first compound 0.1 µM) is 124%; the viability, T/C (second compound 3.16 µM, first compound 0.316 µM) was 115%; the viability, T/C (second compound 3.16 µM, first compound 1 µM) was 132%; the viability, T/C (second compound 3.16 µM, first compound 3.16 µM) is 123%; the viability, T/C (second compound 3.16 µM, first compound 10 µM) was 82.7%. In addition, the viability, T/C (second compound 10 µM, first compound 0.0316 µM) was 115%; the viability, T/C (second compound 10 µM, first compound 0.1 µM) is 102%; the viability, T/C (second compound 10 µM, first compound 0.316 µM) is 112%; the viability, T/C (second compound 10 µM, first compound 1 µM) is 113%; the viability, T/C (second compound 10 µM, first compound 3.16 µM) is 145%; the viability, T/C (second compound 10 µM, first compound 10 µM) was 85.3%.
With `CCc1c2c(nc3ccc(O)cc13)-c1cc3c(c(=O)n1C2)COC(=O)[C@]3(O)CC`, the viability, T/C (compound 0.00316 µM) is 58.4% and 64.9%; the viability, T/C (compound 0.01 µM) is 50.7% and 50.6%; the viability, T/C (compound 0.0316 µM) was 40.2% and 47.8%; the viability, T/C (compound 0.1 µM) was 33.7% and 31.8%; the viability, T/C (compound 0.316 µM) is 29.5% and 27.7%; the viability, T/C (compound 1 µM) was 11.7% and 9.45%. Where the note is “curve of compound”, the IC50 is 10.9 nM and 17.3 nM.
With `COc1cccc(OCCCN)c1-c1cc(Nc2cnc(C#N)cn2)n[nH]1`, the viability, T/C runs as follows: (compound 0.00316 µM) 93.9% and 84.5% and 84.6%; (compound 0.01 µM) 53.2% and 89.7% and 71.7%; (compound 0.0316 µM) 42.5% and 62.6% and 50.3%; (compound 0.1 µM) 34.7% and 51.5% and 47.2%; (compound 0.316 µM) 37.9% and 47.7% and 42.3%; (compound 1 µM) 34.4% and 42.8% and 40.6%. The concentration for half-maximal inhibition (IC50) (curve of compound) was 14.1 nM and 81.8 nM and 41 nM.
On to `CNCc1ccc(-c2[nH]c3cc(F)cc4c3c2CCNC4=O)cc1`, for which the viability, T/C was 113% and 99.8% and 88.3% (compound 0.0316 µM); 91.7% and 96.3% and 114% (compound 0.1 µM); 86% and 112% and 90.9% (compound 0.316 µM); 88% and 96.9% and 104% (compound 1 µM); 87.2% and 83.7% and 97.5% (compound 3.16 µM); 76.9% and 70.9% and 70.5% (compound 10 µM). In addition, the IC50 (curve of compound) was greater than 10000 nM.

The values above are taken from PubChem BioAssay AID1963831 (Molecular Pharmacology Branch, DTP, NCI, 2024).
